# Measurements reported in publication PMC12609579, “Acute Myeloid Leukemia: A Key Role of DGKα and DGKζ in Cell Viability” (Cells, 2025).
# Where two headings read alike, the source gives them in different places.
# Legend:
# [1] = target: serotonin 5-HT2A receptor; settings: cited from earlier work
# THP-1 cells [2] = assay: Proteomic profiling (DIA mass spectrometry) of treated THP-1 cells vs DMSO; assay type: cell-based, human
# Experimental: Cells were lysed in RIPA buffer and sonicated. Proteins were precipitated with cold acetone, pelleted, and resuspended. Reduction was carried out in 25 µL of 100 mM NH4HCO3 with 2.5 µL of 200 mM DTT (Merck, St. Louis, MO, USA) at 60 °C for 45 min, followed by alkylation with 10 µL of 200 mM iodoacetamide (Merck, St. Louis, MO, USA) for 1 h at room temperature in the dark. Excess iodoacetamide was quenched by adding 200 mM DTT. Proteins were then digested with trypsin, dried by SpeedVac, and desalted. Peptides were analyzed on an Ultimate 3000 RSLCnano system coupled to an Orbitrap Exploris 480 equipped with FAIMS (all from Thermo Fisher Scientific). Samples were loaded onto a reversed-phase C18 column (15 cm × 75 µm i.d., Thermo Fisher Scientific) and eluted at 500 nL min^−1 using a 6–95% solvent B gradient over 41 min, followed by 1 min of re-equilibration at 6% B. Data were acquired in positive mode with a spray voltage of 2500 V and FAIMS in standard resolution at a compensation voltage of −45 V. Data-independent acquisition (DIA) was performed with a precursor m/z range of 400–900, using 8 m/z isolation windows with 1 m/z overlap, HCD collision energy of 27%, Orbitrap resolution of 30,000, RF Lens 50%, normalized AGC target 1000, maximum injection time 25 ms, and 1 microscan. DIA data were processed with DIA-NN (v1.8.1) in library-free mode, applying deep-learning prediction for spectra, retention times, and ion mobility. Searches assumed Trypsin/P specificity, precursor charges 1–4, peptide lengths of 7–30 amino acids, and precursor m/z values of 400–900, allowing up to two missed cleavages. Carbamidomethylation of Cys was set as a fixed modification; Met oxidation was set as a variable modification (maximum two per peptide). The false discovery rate was maintained at 1%.
# Normalized data from two independent proteomic experiments were obtained, each comparing a treatment condition to DMSO: (1) ritanserin vs. DMSO and (2) BAY 2965501 vs. DMSO. For each condition, three biological replicates were analyzed.
# Protein abundance differences were calculated separately for each treatment relative to DMSO using a t-test, generating log2 fold change (log2FC) and adjusted p-values (p-adj). All proteins identified by UniProt ID were annotated with the corresponding gene symbol using QIAGEN Ingenuity Pathway Analysis (IPA; QIAGEN Inc., https://digitalinsights.qiagen.com/IPA, accessed on 5 June 2025). Proteins lacking a gene symbol were annotated as NA [42].
# Data were filtered to include only proteins with |log2FC| > 2 and p-adj < 0.05, and retaining those annotated with a gene symbol.
# Cells treated with equal amounts of DMSO (vehicle) were used as controls.
# HEL cells = assay: alamarBlue cell viability assay, HEL; assay type: cell-based, human
# Experimental: (§1) The alamarBlue assay was performed to assess cell viability in presence of chemical inhibitors. A total of 50,000 cells per well were seeded in a 96-wells plate in a volume of 100 μL of complete medium together with 10 μL of 10× concentrated inhibitor solution and then incubated for either 24 or 72 h. Each experimental condition was performed in technical quadruplicates, using cells treated with equal amounts of DMSO vehicle as control and medium alone as background. After incubation, alamarBlue was added to each well at a final concentration of 0.15 mg/mL. The fluorescence of the samples was measured 24 h later using a Spark 10 M Multimode Plate Reader (Tecan, Switzerland) with excitation and emission wavelengths of 535 nm and 590 nm, respectively. For dose–response curve fitting, fluorescence values were normalized according to the following formula:Viability (%) = [(sample mean fluorescence)/(DMSO control mean fluorescence)] ∗ 100
# (§2) Data are the results of at least five independent experiments analyzed with GraphPad Prism 10 as [inhibitor] vs. normalized response curve (variable slope, after manual outlier removal).
# KG-1α = test system: KG-1α; design: method as in PMID 37392305; settings: read-out: IC50 (cytotoxic effects), cited from earlier work
# Kasumi-1 = test system: Kasumi-1; design: method as in PMID 37392305; settings: xenograft mouse models injected with Kasumi-1; cited from earlier work
# THP-1 cells [3] = assay: Annexin V-FITC/7AAD apoptosis/necrosis flow cytometry, THP-1; assay type: cell-based, human; settings: THP-1, 24 h
# Experimental: (§3) To determine the type of cell death, apoptotic and necrotic cells were detected by flow cytometry using the Apoptosis Detection Kit Annexin V-FITC (Invitrogen, Carlsbad, CA, USA). For each sample, 500,000 cells, pretreated for 24 h, were stained according to manufacturer’s instructions, using 7-aminoactinomycin D (7AAD) instead of propidium iodide. Samples were analyzed on a BD FACS Symphony A5 flow cytometer (Franklin Lakes, NJ, USA) using BD FACSDiva 9.1 software. Data were gated based on FSC-A vs. FSC-H to exclude cell doublets and FSC-A vs. SSC-A to exclude debris. Different populations were identified as: live (Annexin V− and 7AAD−), necrotic (Annexin− and 7AAD+), early apoptotic (Annexin V+ and 7AAD−) and late apoptotic (Annexin+ and 7AAD+). Data are shown as mean ± SD of at least three independent experiments analyzed by GraphPad Prism 10 (control vs. [inhibitor]).
# K562 cells = assay: Annexin V-FITC/7AAD apoptosis/necrosis flow cytometry, K562; assay type: cell-based, human; settings: K562, 24 h
# Experimental: as §3
# [4] = test system: normal hematopoietic stem cell samples; design: method as in PMID 37392305; settings: 40 μM; cited from earlier work
# [5] = test system: bone marrow mononuclear cells from primary AML samples; design: method as in PMID 37392305; settings: 40 μM; cited from earlier work
# HL-60 cells = assay: alamarBlue cell viability assay, HL-60; assay type: cell-based, human
# Experimental: as §1, §2
# [6] = concentration close to IC50, representative plot
structure (smiles),measurement,setting,value
Cc1nc2sccn2c(=O)c1CCN1CCC(=C(c2ccc(F)cc2)c2ccc(F)cc2)CC1 [ritanserin],Ki,[1],0.00045 µM
same,number of significantly downregulated proteins,"THP-1 cells [2]; THP-1, 24 h, ritanserin 50 µM, BAY 2965501 75 µM, vs DMSO",approximately 1200
same,number of significantly upregulated proteins,"THP-1 cells [2]; THP-1, 24 h, ritanserin 50 µM, vs DMSO",14
same,log2FC A2M (P01023) protein abundance vs DMSO,"THP-1 cells [2]; THP-1, ritanserin 50 µM, 24 h",4.998
same,log2FC AAAS (Q9NRG9) protein abundance vs DMSO,"THP-1 cells [2]; THP-1, ritanserin 50 µM, 24 h",0.1245
same,log2FC AACS (Q86V21) protein abundance vs DMSO,"THP-1 cells [2]; THP-1, ritanserin 50 µM, 24 h",1.025
same,log2FC AAK1 (Q2M2I8) protein abundance vs DMSO,"THP-1 cells [2]; THP-1, ritanserin 50 µM, 24 h",-2.961
same,log2FC AAMDC (Q9H7C9) protein abundance vs DMSO,"THP-1 cells [2]; THP-1, ritanserin 50 µM, 24 h",-1.488
same,number of differentially abundant proteins,"THP-1 cells [2]; THP-1, |log2FC| > 2 and p-adj < 0.05, with gene symbol, vs DMSO",1210
same,IC50,HEL cells; 24 h treatment then alamarBlue 24 h,~49 µM
same,IC50,"HEL cells; Homo sapiens, 24 h, 24 h treatment then alamarBlue 24 h",49.2 ± 2 µM
same,IC50,"HEL cells; Homo sapiens, 72 h treatment then alamarBlue 24 h",29.6 ± 1 µM
same,IC50,KG-1α; 24 h,38 µM
same,IC50,KG-1α; 72 h,26 µM
same,survival,Kasumi-1,improved survival
same,tumor burden,Kasumi-1,significant reduction
same,Early apoptotic (Annexin V+ 7AAD-),THP-1 cells [3]; [6],14.4%
same,Late apoptotic (Annexin+ 7AAD+),THP-1 cells [3]; [6],2.2%
same,Live cells (Annexin V- 7AAD-),THP-1 cells [3]; [6],83.2%
same,Necrotic (Annexin- 7AAD+),THP-1 cells [3]; [6],0.2%
same,modality of cell death,THP-1 cells [3]; concentration near IC50,early apoptosis
same,Early apoptotic (Annexin V+ 7AAD-),K562 cells; [6],6.2%
same,Late apoptotic (Annexin+ 7AAD+),K562 cells; [6],1.7%
same,Live cells (Annexin V- 7AAD-),K562 cells; [6],90.1%
same,Necrotic (Annexin- 7AAD+),K562 cells; [6],2.0%
same,modality of cell death,K562 cells; concentration near IC50,early apoptosis
same,"apoptosis, % of cells",[4],below 30%
same,"apoptosis, % of cells",[5],up to 70%
same,IC50,"HL-60 cells; HL-60, 24 h treatment then alamarBlue 24 h",~38 µM
same,IC50,"HL-60 cells; Homo sapiens, HL-60, 24 h, HL-60, 24 h treatment then alamarBlue 24 h",37.6 ± 1.5 µM
same,IC50,"HL-60 cells; Homo sapiens, HL-60, HL-60, 72 h treatment then alamarBlue 24 h",25.3 ± 0.9 µM
